Measurements reported in ChEMBL document CHEMBL1201862, “PubChem BioAssay data set” (2004).
Calls of active or inactive are those of the source. For most assays here, no stated cut-off is given here; in the data, actives have a measured EC50 and inactives only a lower limit.

How the values were obtained:
[1] = molecular target: T1, Calpain-2 catalytic subunit (Sus scrofa, UniProt P43367); assay: m-calpain protease blockers, concentration series – biochemical, fluorogenic peptide substrate, dose response (AID 1420); format: functional
T1 sequence (P43367 whole entry): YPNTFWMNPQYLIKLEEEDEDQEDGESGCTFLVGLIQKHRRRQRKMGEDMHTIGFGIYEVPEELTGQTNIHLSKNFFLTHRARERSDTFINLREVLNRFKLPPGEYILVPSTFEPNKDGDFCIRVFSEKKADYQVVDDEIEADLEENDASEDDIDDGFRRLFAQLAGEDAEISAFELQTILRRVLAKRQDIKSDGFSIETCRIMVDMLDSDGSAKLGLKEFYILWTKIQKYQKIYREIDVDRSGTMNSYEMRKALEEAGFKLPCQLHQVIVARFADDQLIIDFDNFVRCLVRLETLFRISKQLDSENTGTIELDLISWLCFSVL

[2] = molecular target: T2, Short transient receptor potential channel 4 (Mus musculus, UniProt Q9QUQ5); assay: block of DAMGO-driven TRPC4 calcium entry – cell-based, HEK293 TRPC4/mu-opioid, Fluo-4 calcium, dose response (AID 434942); format: functional;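 further: potency of inhibitors blocking the TRPC4 calcium response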
T2 sequence (Q9QUQ5 whole entry): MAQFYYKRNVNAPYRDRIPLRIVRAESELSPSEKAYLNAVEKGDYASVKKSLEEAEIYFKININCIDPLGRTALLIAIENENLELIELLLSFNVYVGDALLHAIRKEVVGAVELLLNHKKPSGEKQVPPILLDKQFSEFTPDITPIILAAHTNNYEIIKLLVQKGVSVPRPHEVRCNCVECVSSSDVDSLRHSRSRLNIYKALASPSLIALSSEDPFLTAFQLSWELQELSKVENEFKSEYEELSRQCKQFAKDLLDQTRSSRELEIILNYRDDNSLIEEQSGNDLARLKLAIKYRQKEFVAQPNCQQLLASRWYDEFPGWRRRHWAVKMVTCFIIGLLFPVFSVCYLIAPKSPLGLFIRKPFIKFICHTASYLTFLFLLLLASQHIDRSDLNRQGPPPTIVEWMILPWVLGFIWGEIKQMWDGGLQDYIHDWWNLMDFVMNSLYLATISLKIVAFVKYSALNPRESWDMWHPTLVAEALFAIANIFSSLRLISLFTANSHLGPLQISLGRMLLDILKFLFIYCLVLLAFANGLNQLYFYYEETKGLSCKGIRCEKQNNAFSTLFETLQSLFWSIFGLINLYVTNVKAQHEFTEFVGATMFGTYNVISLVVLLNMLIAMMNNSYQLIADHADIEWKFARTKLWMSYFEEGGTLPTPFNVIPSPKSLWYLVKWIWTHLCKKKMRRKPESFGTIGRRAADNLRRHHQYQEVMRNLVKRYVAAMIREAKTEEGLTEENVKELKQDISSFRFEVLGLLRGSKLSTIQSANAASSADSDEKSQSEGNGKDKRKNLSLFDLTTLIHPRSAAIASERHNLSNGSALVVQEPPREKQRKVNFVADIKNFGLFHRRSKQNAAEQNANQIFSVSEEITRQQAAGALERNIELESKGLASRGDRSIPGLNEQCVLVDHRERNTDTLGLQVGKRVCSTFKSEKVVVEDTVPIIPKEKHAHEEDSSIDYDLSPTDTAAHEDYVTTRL

[3] = molecular target: T3, Carboxy-terminal domain RNA polymerase II polypeptide A small phosphatase 1 (Homo sapiens, UniProt Q9GZU7); assay: CTDSP1 inhibitors, concentration-response, biochemical, absorbance readout, ultra-high-throughput screen actives (AID 540297); format: functional
T3 sequence (Q9GZU7 whole entry): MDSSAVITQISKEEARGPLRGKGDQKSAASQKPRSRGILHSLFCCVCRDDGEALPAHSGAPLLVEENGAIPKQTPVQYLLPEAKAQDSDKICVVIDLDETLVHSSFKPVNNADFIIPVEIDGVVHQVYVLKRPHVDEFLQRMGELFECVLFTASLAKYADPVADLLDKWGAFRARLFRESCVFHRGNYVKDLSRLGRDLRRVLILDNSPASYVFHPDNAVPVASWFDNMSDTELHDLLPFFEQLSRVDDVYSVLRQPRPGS

cells [4] = format: functional
cells [5] = format: functional, cell-based
cells [6] = format: functional, cell-based; remark: listed apart in the source
[7] = blockers of HIV-1 ZM109 envelope-driven cell-cell fusion – HeLa effector, CEM target cells, luciferase, cherry-pick, dose response (AID 652058); format: functional, cell-based;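 further: luciferase signal from HIV-1 Env mediated cell-cell fusion of effector and target cells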
[8] = NIH-3T3 fibroblast cytotoxicity, dose response, cytotoxicity control, cell-based, fluorescence, Alamar Blue, secondary assay (AID 2327); format: functional;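 further: NIH-3T3 mouse fibroblasts cultured with fluconazole at 8 µg/mL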
[9] = NIH3T3 cell viability loss – ATP luminescence, mouse fibroblasts, counter-screen, dose response (AID 2010); format: functional, cell-based;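 further: cells exposed to compound for about 90 hours before reading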
[10] = fluconazole-exposed Candida albicans growth modulators – fluorescence, retest, confirmation (AID 2467); format: functional, cell-based
[11] = Luminescence Cell-Based Dose Retest to Confirm Inhibitors of Cancer Stem Cells. [Related pubchem assays (depositor defined):AID2717, AID2721]; format: functional; conditions: Homo sapiens
[12] = Trypanosoma cruzi growth suppression in host cells – NIH3T3 host cells, beta-gal luminescence, confirmation (AID 2044); format: functional, cell-based;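 further: intracellular parasites grown in NIH/3T3 mouse fibroblasts as host cells; luminescent beta-galactosidase reporter signal from transgenic T. cruzi replicating inside host cells; inhibitors lower the luminescence signal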
[13] = alpha-synuclein stem-loop luciferase translation blockers – H4 neuroglioma cells, luminescence, confirmation (AID 1988); format: functional, cell-based
[14] = Luminescence Cell-Based Dose Response HTS to Identify Inhibitors of 5'UTR Stem-Loop Driven Prion Protein mRNA Translation in H4 Neuroglioblastoma Cells. [Related pubchem assays: 1827 (Project Summary), 1813 (Primary HTS)]; format: functional
[15] = system: Streptococcus sp. 'group A'; assay: Streptococcus pyogenes SK(-)GAS viability under kanamycin – luminescence, BacTiterGlo, confirmation, counter-screen for streptokinase expression inhibitor project, dose response (AID 1900); format: functional, organism-based
Streptococcus = assay: GAS UMAA2166 growth inhibition – luminescence, BacTiterGlo, counter-screen for streptokinase expression inhibitor project, dose response (AID 1915); format: functional, organism-based;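 further: potency for reduction of bacterial viability or growth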
[16] = luciferase reporter signal suppression in cells – H4 neuroglioma cells, luminescence, dose response (AID 1990); format: functional, cell-based
Streptokinase A = molecular target: T4, Streptokinase A (Streptococcus pyogenes serotype M1, UniProt P10520); assay: viability-normalized secreted streptokinase activity reduction – plasminogen activation absorbance, OD405, dose response (AID 1914); format: functional, Streptococcus pyogenes M1 GAS;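 further: secreted streptokinase activity via plasminogen activation per viability signal from cell pellet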
T4 sequence (P10520 whole entry): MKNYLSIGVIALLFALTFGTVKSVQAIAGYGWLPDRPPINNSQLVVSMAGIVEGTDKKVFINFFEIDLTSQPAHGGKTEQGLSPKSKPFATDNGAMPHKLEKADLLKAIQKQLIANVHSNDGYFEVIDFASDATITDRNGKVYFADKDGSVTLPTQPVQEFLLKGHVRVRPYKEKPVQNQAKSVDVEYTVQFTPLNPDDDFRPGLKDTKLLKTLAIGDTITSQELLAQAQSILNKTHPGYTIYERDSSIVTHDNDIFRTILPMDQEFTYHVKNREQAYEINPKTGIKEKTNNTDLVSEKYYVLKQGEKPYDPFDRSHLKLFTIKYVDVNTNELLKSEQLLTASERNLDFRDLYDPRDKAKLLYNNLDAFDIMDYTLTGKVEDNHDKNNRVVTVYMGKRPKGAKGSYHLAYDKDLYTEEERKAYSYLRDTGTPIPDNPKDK

[17] = viability of HCT116 lacking mutant beta-catenin – cell-based, human colon tumor, dose response (AID 1045); format: functional;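 further: HCT116 colon tumor cells with beta catenin knocked out; cells exposed to compound for 60 hours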
[18] = viability of PTEN-deleted HCT116 cells – cell-based, HCT116 PTEN knockout, dose response (AID 1047); format: functional;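 further: HCT116 colon tumor cells with PTEN knocked out; cells exposed to compound for 60 hours before readout; potency for loss of cell viability measured by luminescence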
[19] = microbe, parasite or virus in culture; format: functional; conditions: Mycobacterium tuberculosis

## O=C(CN1CCCCCCC1)Nc1ccc(Cl)cc1Cl
[1]
  IC50: 4.92 µM (not active)

## Cc1cc(OCc2cc(C(=O)NCC3(C)COC3)no2)cc(C)c1Cl
[2]
  EC50: 2.37 µM (active)

## Cc1ccc2c(c1)N(C(=O)CCC(=O)Nc1ccccc1Br)CC(C)O2 (centres undefined)
[2]
  EC50: 1.68 µM (active)

## COc1ccc(C(=O)OCC(=O)NCc2ccco2)cc1OC
[3]
  IC50: 9.73 µM (active)

## Cc1cc(Br)c(NC(=O)CN(C)CCOc2ccccc2)c(Br)c1
[2]
  EC50: 5.96 µM (active)

## C=CCOc1ccc(Br)cc1CNC(C)(C)CO
[2]
  EC50: 3.76 µM (active)

## CN1/C(=C\C(=O)COC(=O)C2COc3ccccc3O2)C(C)(C)c2ccccc21 (centres undefined)
Cells [4]
  IC50: 48.2 µM (active)

## COc1ccc(-n2c(C)csc2=S)cc1
Cells [5]
  EC50: > 350 µM (not active)
Cells [6]
  EC50: > 350 µM (not active)

## CCOc1cc(CNCc2cccs2)ccc1OCC(=O)NC(C)(C)C
[2]
  EC50: 2.11 µM (active)

## Cc1cccc(NC(=O)C2CC(=O)N=C(Nc3nc4ccccc4s3)N2)c1 (centres undefined)
Cells [5]
  EC50: > 350 µM (not active)
Cells [6]
  EC50: > 350 µM (not active)

## CCc1ccc(NC(=O)C(=O)NNC(=O)COc2cccc(OC)c2)cc1
Cells [4]
  IC50: 5.58 µM (active)

## O=C(C[C@H]1C[C@@H]2c3cc(NC(=O)Nc4ccc(F)cc4)ccc3O[C@@H]2[C@@H](CO)O1)NCC1CC1
[7]
  AC50: 41.4 µM (active)

## Cc1[nH]n(S(=O)(=O)Cc2ccccc2)c(=O)c1N=Nc1ccccc1Cl
Cells [4]
  IC50: 8.42 µM (active)

## Cc1cc(SCC(=O)N/N=C/c2ccc(O)cc2O)c(C)cc1Br
[8]
  EC50: > 160 µM (inactive)
[9]
  EC50: > 60 µM (inconclusive)
[10]
  EC50: 3.06 µM (active)
[11]
  AC50: 4.49 µM (active)
[12]
  EC50: 0.687 µM (active)
[13]
  EC50: 5.74 µM (active)
Cells [5]
  EC50: > 350 µM (not active)
Cells [6]
  EC50: 13.4 µM (active)
[14]
  EC50: 9.19 µM (active)
[15]
  EC50: 2.46 µM (active)
Streptococcus
  EC50: 2.57 µM (active)
[16]
  EC50: 5.85 µM (active)

## COc1cccc(C2C3=C(N=c4s/c(=C\c5cccc(O)c5)c(=O)n42)c2ccccc2CC3)c1OC (centres undefined)
Streptokinase A
  EC50: 6.31 µM (active)
[17]
  EC50: 15.3 µM (active)
[11]
  AC50: 4.06 µM (active)
[18]
  EC50: 13.9 µM (active)
[15]
  EC50: 20.8 µM (active)
[19]
  CC50: 32.5 µM (active)
Streptococcus
  EC50: > 150 µM (not active)
